#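 Method: 48-hour compound exposure of cells in 96-well plates, five concentrations, linear interpolation of endpoints. GI50: concentration for 50% inhibition of growth.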 The source made the active and inactive calls. Rule as the data show it: active = GI50 up to about 1.1 µM and inactive = higher. Non-standard residues stand in square brackets, D forms with d. Square brackets hold non-standard residues; d marks the D form. Residues, ends and D or L forms follow the SMILES beside them. Peptide text beside a SMILES is read from it. * marks the point of attachment. *: point of attachment. NMeV = CN[C@H](C(=O)O)C(C)C; X28 = COc1ccc(CN*)c(OC)c1; Octanoyl = CCCCCCCC(=O)*; dNMeA = CN[C@H](C)C(=O)O; Ac5c = NC1(C(=O)O)CCCC1; Boc = CC(C)(C)OC(=O)*; tBu = CC(C)(C)*
# Legend:
# Experiment in all cases: NCI-60 cell line screen, 48 h
# NCI-H23 = system: NCI-H23
# RPMI-8226 = system: RPMI-8226
# UACC-62 = system: UACC-62
# SN12C = system: SN12C
# SNB-19 = system: SNB-19
# SF-539 = system: SF-539
# IGROV-1 = system: IGROV-1
# MCF7 = system: MCF7
# CCRF-CEM = system: CCRF-CEM
# UACC-257 = system: UACC-257
# MDA-MB-231 = system: MDA-MB-231
# M14 = system: M14
# Hs-578T = system: Hs-578T
# UO-31 = system: UO-31
# T47D = system: T47D
# NCI-H522 = system: NCI-H522
# KM12 = system: KM12
# RXF 393 = system: RXF 393
# SW-620 = system: SW-620
# SK-OV-3 = system: SK-OV-3
Structure (SMILES),GI50 (NCI-H23),GI50 (RPMI-8226),GI50 (UACC-62),GI50 (SN12C),GI50 (SNB-19),GI50 (SF-539),GI50 (IGROV-1),GI50 (MCF7),GI50 (CCRF-CEM),GI50 (UACC-257),GI50 (MDA-MB-231),GI50 (M14),GI50 (Hs-578T),GI50 (UO-31),GI50 (T47D),GI50 (NCI-H522),GI50 (KM12),GI50 (RXF 393),GI50 (SW-620),GI50 (SK-OV-3)
O=c1cc(-c2ccccc2)[nH]c2ccc(N3CCCC3)cc12,0.299 µM (active),0.0366 µM (active),< 0.01 µM (active),0.0451 µM (active),0.0217 µM (active),0.0123 µM (active),0.267 µM (active),4.58 µM (inactive),< 0.0149 µM (active),30.4 µM (inactive),0.103 µM (active),< 0.0123 µM (active),< 0.0173 µM (active),> 100 µM (inactive),> 100 µM (inactive),< 0.01 µM (active),0.039 µM (active),0.0196 µM (active),< 0.01 µM (active),0.0466 µM (active)
CC(OC(C)(C)C)C(NC(=O)C(CCCCNC(=O)OC(C)(C)C)NC(=O)C(Cc1c[nH]c2ccccc12)NC(=O)C(N)Cc1ccccc1)C(=O)NC(Cc1ccccc1)C(=O)NC1(C(=O)O)CCCC1 (stereo not given) (H-FWK(Boc)T(tBu)F[Ac5c]-OH; configuration not given here),> 100 µM (inactive),> 100 µM (inactive),> 100 µM (inactive),> 100 µM (inactive),> 100 µM (inactive),> 100 µM (inactive),> 100 µM (inactive),> 100 µM (inactive),> 100 µM (inactive),> 100 µM (inactive),> 100 µM (inactive),> 100 µM (inactive),> 100 µM (inactive),> 100 µM (inactive),79.4 µM (inactive),> 100 µM (inactive),> 100 µM (inactive),> 100 µM (inactive),> 100 µM (inactive),> 100 µM (inactive)
CCCCCCCC(=O)N[C@H](C(=O)N[C@H](C(=O)N(C)[C@H](C(=O)N1CCC[C@H]1C(=O)N(C)[C@H](C)C(=O)NCc1ccc(OC)cc1OC)C(C)C)C(C)C)C(C)C (Octanoyl-VV[NMeV]P[dNMeA]-X28),13.6 µM (inactive),3.02 µM (inactive),7.21 µM (inactive),18 µM (inactive),12.7 µM (inactive),18.8 µM (inactive),3.75 µM (inactive),7.53 µM (inactive),11.5 µM (inactive),5.21 µM (inactive),10.5 µM (inactive),7.82 µM (inactive),9.16 µM (inactive),17.6 µM (inactive),4.29 µM (inactive),7.21 µM (inactive),4.62 µM (inactive),8.57 µM (inactive),7.71 µM (inactive),28.9 µM (inactive)
C=C1C(=O)O[C@H]2[C@H]1[C@H](OC(=O)/C(C)=C\C)C[C@]1(CO1)[C@@H]1[C@H](OC(C)=O)C=C(C)[C@]21O [EUPAROTIN ACETATE],23.2 µM (inactive),4.82 µM (inactive),15.5 µM (inactive),14 µM (inactive),> 58.5 µM (inactive),30.3 µM (inactive),19.5 µM (inactive),6.79 µM (inactive),2.36 µM (inactive),17.7 µM (inactive),16.5 µM (inactive),21.6 µM (inactive),> 56.2 µM (inactive),13.7 µM (inactive),14.5 µM (inactive),3.31 µM (inactive),19 µM (inactive),10.8 µM (inactive),8.85 µM (inactive),> 59.6 µM (inactive)
